Results on ten compounds are retold here after patent US9765074B2, “Inhibitors of the renal outer medullary potassium channel” (Merck Sharp & Dohme Corp., priority 2013, dated 2017).

The target in the assay is T1, hROMK (hKir1.1) (Homo sapiens, UniProt P48048).
T1 construct: expressed in transfected cells
T1 sequence (P48048 1-391): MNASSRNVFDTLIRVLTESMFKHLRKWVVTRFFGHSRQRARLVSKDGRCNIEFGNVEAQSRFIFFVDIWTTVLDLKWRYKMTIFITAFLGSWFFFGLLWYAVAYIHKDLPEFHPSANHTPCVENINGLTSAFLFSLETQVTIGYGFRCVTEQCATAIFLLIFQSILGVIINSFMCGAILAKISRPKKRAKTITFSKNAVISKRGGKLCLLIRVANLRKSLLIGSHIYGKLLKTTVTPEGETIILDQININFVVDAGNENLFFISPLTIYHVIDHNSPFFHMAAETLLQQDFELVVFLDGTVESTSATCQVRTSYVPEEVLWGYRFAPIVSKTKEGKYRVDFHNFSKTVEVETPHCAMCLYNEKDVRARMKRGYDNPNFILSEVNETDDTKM
The assay can be described thus: Thallium Flux Assay (ROMK channel functional thallium flux, FLIPR-Tetra). The assay is classed as cell-based. Conditions: HEK293 cells stably expressing hROMK (hKir1.1); 30 min compound incubation. How it is done:
The following Thallium Flux Assay was performed on each of the final product compounds in the Examples.
Cell Culture Conditions—HEK293 cells stably expressing hROMK (hKir1.1) were grown at 37° C. in a 10% CO2 humidified incubator in complete growth media: Dulbecco's Modified Eagle Medium supplemented with non-essential amino acids, Penicillin/Streptomycin/Glutamine, G418 and FBS. At >80% confluency, aspirate the media from the flask and rinse with 10 mL Calcium/Magnesium-free PBS. Add 5 mL of 1× trypsin (prepared in Ca/Mg Free PBS) to T-225 flask and return flask to 37° C./CO2 incubator for 2-3 minutes. To dislodge the cell, gently bang the side of the flask with your hand. Triturate the cells completely and then transfer the cells to 25 mL complete media. Centrifuge at 1,500 rpm for 6 min followed by resuspension in complete growth media and determine cell concentration. For typical re-seeding, 4E6 cells/T-225 flask will attain >80% confluency in 4 days. Under ideal growth conditions and appropriate tissue culture practices, this cell line is stable for 40-45 passages. FluxOR Kit Components (Invitrogen F10017) • FluxOR™ Reagent (Component A) • FluxOR™ Assay Buffer (Component B)—10× Concentrate • PowerLoad™ Concentrate (Component C)—100× Concentrate • Probenecid (Component D)—Lyophilized sample is kept at −20° C. Water soluble, 100× after solubilization in 1 mL water. Store at 4° C. • FluxOR™ Chloride-free Buffer (Component E)—5× Concentrate • Potassium sulfate (K2SO4) Concentrate (Component F)—125 mM in water. Store at 4° C. • Thallium sulfate (Tl2SO4) Concentrate (Component G)—50 mM in water. Store at 4° C. • DMSO (dimethyl sulfoxide, Component H)—1 mL (100%) Reagent Preparation: FluxOR Working Solutions • 1000× FluxOR™ Reagent: Reconstitute a vial of component A in 100 μl DMSO; Mix well; Store 10 μl aliquots at −20° C. • 1× FluxOR™ Assay Buffer: Dilute Component B 10-fold with water; Adjust pH to 7.4 with Hepes/NaOH; Filter and store at 4° C. • Probenecid/Assay Buffer: 100 mL of 1× FluxOR™ Assay Buffer; 1 mL of reconstituted component D; Store at 4° C. • Loading Buffer (per microplate): 10 μl 1000× FluxOR™ Reagent; 100 μl component C; 10 mL Probenecid/Assay Buffer • Compound Buffer (per microplate): 20 mL Probenecid/Assay Buffer; 0.3 mM ouabain (10 mM ouabain in water can be stored in amber bottle/aluminum foil at room temperature); Test compound • 1× FluxOR™ Chloride-Free Buffer: Prepare 1× working solution in water. Can be stored at room temperature • Stimulant Buffer (prepared at 5× final concentration in 1× FluxOR™ Chloride-Free Buffer): 7.5 mM Thallium sulfate and 0.75 mM Potassium sulfate (to give a final assay concentration of 3 mM Thallium/0.3 mM Potassium). Store at 4° C. when not in use. If kept sterile, this solution is good for months. Assay Protocol—The ROMK channel functional thallium flux assay is performed in 384 wells, using the FLIPR-Tetra instrument. HEK-hKir1.1 cells are seeded in Poly-D-Lysine microplates and kept in a 37° C.-10% CO2 incubator overnight. On the day of the experiment, the growth media is replaced with the FluxOR™ reagent loading buffer and incubated, protected from light, at ambient temperature (23-25° C.) for 90 min. The loading buffer is replaced with assay buffer±test compound followed by 30 min incubation at ambient temperature, where the Thallium/Potassium stimulant is added to the microplate. Step Protocol • 1. Seed HEK-hKir1.1 cells (50 μl at 20,000 cells/well) in 384-well PDL coated Microplates • 2. Allow cells to adhere overnight in humidified 37° C./10% CO2 incubator • 3. Completely remove cell growth media from microplate and replace with 25 μl loading buffer • 4. Incubate Microplate at room temperature, protected form light, for 90 min • 5. Remove loading buffer and replace with 25 μl 1× Assay Buffer±test compound. • 6. Incubate microplate at room temperature, protected from light, for 30 min • 7. At FLIPR-Tetra 384: Add stimulant (Thallium/Potassium) solution to microplate and monitor fluorescence. […]
What is called IC50 is the concentration that gives 50% inhibition. A high value points to a need for much substance. For the compound `CC1=C(N2C(=O)C3(CCN(C[C@H](O)c4ccc(-n5cnnn5)nc4C)CC3)CC2C)COC1=O` (mixture of isomers) [Example 56, 8-{(2R)-2-hydroxy-2-[2-methyl-6-(1H-tetrazol-1-yl)pyridin-3-yl]ethyl}-3-methyl-2-(4-methyl-5-oxo-2,5-dihydrofuran-3-yl)-1-oxo-2-aza-8-azoniaspiro[4.5]decane], the midpoint of inhibition, the IC50, lay at 20 nM.

`CC1=C(N2C(=O)C3(CCN(C[C@H](O)c4ccc(-n5cnnn5)nc4C)CC3)CC2C)COC1=O` (mixture of isomers) [Example 57, 8-{(2R)-2-hydroxy-2-[2-methyl-6-(1H-tetrazol-1-yl)pyridin-3-yl]ethyl}-3-methyl-2-(4-methyl-5-oxo-2,5-dihydrofuran-3-yl)-1-oxo-2-aza-8-azoniaspiro[4.5]decane] gave an IC50 of 20 nM.

`CC1=C(N2C(=O)C3(CCN(C[C@@H](O)c4ccc(-n5cnnn5)nc4C)CC3)CC2C)COC1=O` (mixture of isomers) [Example 58, 8-{(2S)-2-hydroxy-2-[2-methyl-6-(1H-tetrazol-1-yl)pyridin-3-yl]ethyl}-3-methyl-2-(4-methyl-5-oxo-2,5-dihydrofuran-3-yl)-1-oxo-2-aza-8-azoniaspiro[4.5]decane] registered an IC50 of 60 nM.

In turn, `CC1=C(N2C(=O)C3(CCN(C[C@@H](O)c4ccc(-n5cnnn5)nc4C)CC3)CC2C)COC1=O` (mixture of isomers) [Example 59, 8-{(2S)-2-hydroxy-2-[2-methyl-6-(1H-tetrazol-1-yl)pyridin-3-yl]ethyl}-3-methyl-2-(4-methyl-5-oxo-2,5-dihydrofuran-3-yl)-1-oxo-2-aza-8-azoniaspiro[4.5]decane] came in with an IC50 of 50 nM.

The compound `Cc1nc(-n2cnnn2)cnc1C(O)CN1CCC2(CC1)C[C@H](C)N(C1=CC(=O)OC1)C2=O` (mixture of isomers) [Example 165, (3S)-8-{2-hydroxy-2-[3-methyl-5-(1H-tetrazol-1-yl)pyrazin-2-yl]ethyl}-3-methyl-2-(5-oxo-2,5-dihydrofuran-3-yl)-2,8-diazaspiro[4.5]decan-1-one] came in with an IC50 of 10 nM.

Turning to `Cc1nc(-n2cnnn2)cnc1C(O)CN1CCC2(CC1)C[C@H](C)N(C1=CC(=O)OC1)C2=O` (mixture of isomers) [Example 168, (3S)-8-{2-hydroxy-2-[3-methyl-5-(1H-tetrazol-1-yl)pyrazin-2-yl]ethyl}-3-methyl-2-(5-oxo-2,5-dihydrofuran-3-yl)-2,8-diazaspiro[4.5]decan-1-one], it took 10 nM to reach half-maximal inhibition (IC50).

Compound `Cc1nc(-n2cnnn2)cnc1C(O)CN1CCC2(CC1)C[C@H](C)N(C1=CC(=O)OC1)C2=O` (mixture of isomers) [Example 169, (3S)-8-{2-hydroxy-2-[3-methyl-5-(1H-tetrazol-1-yl)pyrazin-2-yl]ethyl}-3-methyl-2-(5-oxo-2,5-dihydrofuran-3-yl)-2,8-diazaspiro[4.5]decan-1-one] returned an IC50 of 10 nM.

In the case of `COC1CN(C2=CC(=O)OC2)C(=O)C12CCN(C[C@H](O)c1ccc(-n3cnnn3)nc1)CC2` (mixture of isomers) [Example 206, 8-((R)-2-(6-(1H-tetrazol-1-yl)pyridin-3-yl)-2-hydroxyethyl)-4-methoxy-2-(5-oxo-2,5-dihydrofuran-3-yl)-2,8-diazaspiro[4.5]decan-1-one], the IC50 is 50 nM. This IC50 is about 5-fold higher than that of the compound before.

For `COC1CN(C2=CC(=O)OC2)C(=O)C12CCN(C[C@H](O)c1ccc(-n3cnnn3)nc1)CC2` (mixture of isomers) [Example 207, 8-((R)-2-(6-(1H-tetrazol-1-yl)pyridin-3-yl)-2-hydroxyethyl)-4-methoxy-2-(5-oxo-2,5-dihydrofuran-3-yl)-2,8-diazaspiro[4.5]decan-1-one], half-maximal inhibition (IC50) was put at 40 nM.

`O=C1C=C(N2C(=O)C3(CCN(C[C@H](O)c4ccc(-n5cnnn5)nn4)CC3)CC2C2CC2)CO1` (mixture of isomers) [Example 210, 3-cyclopropyl-8-{(2S)-2-hydroxy-2-[6-(1H-tetrazol-1-yl)pyridazin-3-yl]ethyl}-2-(5-oxo-2,5-dihydrofuran-3-yl)-2,8-diazaspiro[4.5]decan-1-one] registered an IC50 of 70 nM. This IC50 lies about 1.8-fold higher than the previous one.
